# In patent US20260022142A1, “MACROCYCLIC IMMUNOMODULATORS” (Bristol-Myers Squibb Company, priority 2022, published 2026):
# Numbered stars: 1 amine (or outer) side, 2 acyl side, 3 side chain; on linkers, the order of the positions; unused ones are H or OH. Bridge positions count the residues as written; N and C are the ends. Square brackets hold non-standard residues; d marks the D form. Peptide text beside a SMILES is read from it. * marks the point of attachment. ξ: configuration not given here. Phe(3-CF3) = N[C@@H](Cc1cccc(C(F)(F)F)c1)C(=O)O; Phe(4-COOH) = N[C@@H](Cc1ccc(C(=O)O)cc1)C(=O)O; Bip = N[C@@H](Cc1ccc(-c2ccccc2)cc1)C(=O)O; d(βAsp) = O=C(O)[C@@H](CC(=O)[*:2])N[*:1]; NH(CH2)16COOH = O=C(O)CCCCCCCCCCCCCCCCN*; NH(CH2)14COOH = O=C(O)CCCCCCCCCCCCCCN*; Phe(3-Me) = Cc1cccc(C[C@H](N)C(=O)O)c1; γGlu = O=C(O)[C@H](CCC(=O)[*:2])N[*:1]; NH(CH2)12COOH = O=C(O)CCCCCCCCCCCCN*; Val(3-OH) = CC(C)(O)[C@H](N)C(=O)O; Cha = N[C@@H](CC1CCCCC1)C(=O)O; Thr(3ξ) = CC(O)[C@H](N)C(=O)O; Carboxymethyl = O=C(O)C*; Orn = NCCC[C@H](N)C(=O)O; Dab = NCC[C@H](N)C(=O)O; AEEA = NCCOCCOCC(=O)O; ξC = NC(CS)C(=O)O
# Target: T1, PD-1/PD-L1 interaction (PE-labeled human PD-L1-Ig binding to Jurkat cell line over-expressing human PD-1) (Homo sapiens, UniProt Q15116)
# T1 construct: expressed in transfected cells; host or cells: Jurkat
# T1 sequence (Q15116 25-288): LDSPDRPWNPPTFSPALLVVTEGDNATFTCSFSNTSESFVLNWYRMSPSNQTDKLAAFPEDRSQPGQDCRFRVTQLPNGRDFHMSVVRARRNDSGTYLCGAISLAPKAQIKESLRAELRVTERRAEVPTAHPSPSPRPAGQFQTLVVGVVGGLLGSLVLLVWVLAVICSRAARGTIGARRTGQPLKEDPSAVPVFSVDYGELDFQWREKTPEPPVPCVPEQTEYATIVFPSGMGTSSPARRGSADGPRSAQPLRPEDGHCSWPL
# Test: Jurkat-PD-1 Cell Binding High-Content Screening Assay (CBA)
# Assay type: cell-based
# Settings: Jurkat cell line over-expressing human PD-1; PE-labeled PD-L1-Ig 20 nM final; read-out: Jurkat hPD1-PDL1 IC50
# Summary of the method: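 Human PD-L1-Ig carrying a covalent PE label on its Ig tag serves as the probe, applied at 20 nM final to compound-treated (2 h, 37° C) Jurkat-hPD-1 cells in medium with 10% fetal calf serum. After one hour, fixation and nuclear staining precede high-content image analysis.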
row,SMILES,IC50 [nM]
1,CC(C)C[C@H]1NC(=O)[C@H](CCCN)NC(=O)[C@H](Cc2ccc(OCC(=O)O)cc2)NC(=O)[C@H](Cc2ccc(-c3ccccc3)cc2)NC(=O)[C@H](Cc2ccc(OCC(=O)O)cc2)NC(=O)[C@H](Cc2cccc(C(F)(F)F)c2)NC(=O)[C@H](CC(=O)O)NC(=O)[C@H](Cc2ccc(OCC(=O)O)cc2)NC(=O)[C@H](Cc2c[nH]cn2)NC(=O)CSC[C@@H](C(=O)N[C@@H](CCN)C(=O)NCCCCCCCCCCCCCCC(=O)O)NC(=O)[C@H](CCC(=O)O)NC(=O)[C@H](C(C)(C)O)NC(=O)[C@H](CC2CCCCC2)NC(=O)[C@H](CCN)NC1=O [Compound 3868] ({CH2CO}-HY(Carboxymethyl)D[Phe(3-CF3)]Y(Carboxymethyl)[Bip]Y(Carboxymethyl)[Orn][dL][Dab][Cha][Val(3-OH)]EC[Dab]-{NH(CH2)14COOH}; thioether N-14),156
2,Cc1cccc(C[C@@H]2NC(=O)[C@H](CC(=O)O)NC(=O)[C@H](Cc3ccc(OCC(=O)O)cc3)NC(=O)[C@H](C)NC(=O)CSC[C@@H](C(=O)N[C@@H](CCN)C(=O)NCCOCCOCC(=O)NCCOCCOCC(=O)NCCOCCOCC(=O)NCCOCCOCC(=O)NCCCCCCCCCCCCCCC(=O)O)NC(=O)[C@H](CO)NC(=O)[C@H](C(C)(C)O)NC(=O)[C@H](CC3CCCCC3)NC(=O)[C@H](CCN)NC(=O)[C@@H](CC(C)C)NC(=O)[C@H](CCCN)NC(=O)[C@H](Cc3ccc(OCC(=O)O)cc3)NC(=O)[C@H](Cc3ccc(-c4ccccc4)cc3)NC(=O)[C@H](Cc3ccc(OCC(=O)O)cc3)NC2=O)c1 [Compound 3869] ({CH2CO}-AY(Carboxymethyl)D[Phe(3-Me)]Y(Carboxymethyl)[Bip]Y(Carboxymethyl)[Orn][dL][Dab][Cha][Val(3-OH)]SC[Dab][AEEA][AEEA][AEEA][AEEA]-{NH(CH2)14COOH}; thioether N-14),71.1
3,Cc1cccc(C[C@@H]2NC(=O)[C@H](CC(=O)O)NC(=O)[C@H](Cc3ccc(OCC(=O)O)cc3)NC(=O)[C@H](C)NC(=O)CSC[C@@H](C(=O)N[C@@H](CCN)C(=O)NCCOCCOCC(=O)NCCOCCOCC(=O)NCCOCCOCC(=O)NCCOCCOCC(=O)NCCCCCCCCCCCCCCC(=O)O)NC(=O)[C@H](Cc3cnc[nH]3)NC(=O)[C@H](C(C)(C)O)NC(=O)[C@H](CC3CCCCC3)NC(=O)[C@H](CCN)NC(=O)[C@@H](CC(C)C)NC(=O)[C@H](CCCN)NC(=O)[C@H](Cc3ccc(OCC(=O)O)cc3)NC(=O)[C@H](Cc3ccc(-c4ccccc4)cc3)NC(=O)[C@H](Cc3ccc(OCC(=O)O)cc3)NC2=O)c1 [Compound 3870] ({CH2CO}-AY(Carboxymethyl)D[Phe(3-Me)]Y(Carboxymethyl)[Bip]Y(Carboxymethyl)[Orn][dL][Dab][Cha][Val(3-OH)]HC[Dab][AEEA][AEEA][AEEA][AEEA]-{NH(CH2)14COOH}; thioether N-14),28
4,Cc1cccc(C[C@@H]2NC(=O)[C@H](CC(=O)O)NC(=O)[C@H](Cc3ccc(OCC(=O)O)cc3)NC(=O)[C@H](C)NC(=O)CSC[C@@H](C(=O)N[C@@H](CCN)C(=O)NCCOCCOCC(=O)NCCOCCOCC(=O)N[C@@H](CCC(=O)N[C@@H](CCC(=O)NCCCCCCCCCCCCCCCCC(=O)O)C(=O)O)C(=O)O)NC(=O)[C@H](Cc3c[nH]cn3)NC(=O)[C@H](C(C)(C)O)NC(=O)[C@H](CC3CCCCC3)NC(=O)[C@H](CCN)NC(=O)[C@@H](CC(C)C)NC(=O)[C@H](CCCN)NC(=O)[C@H](Cc3ccc(OCC(=O)O)cc3)NC(=O)[C@H](Cc3ccc(-c4ccccc4)cc3)NC(=O)[C@H](Cc3ccc(OCC(=O)O)cc3)NC2=O)c1 [Compound 3871] ({CH2CO}-AY(Carboxymethyl)D[Phe(3-Me)]Y(Carboxymethyl)[Bip]Y(Carboxymethyl)[Orn][dL][Dab][Cha][Val(3-OH)]HC[Dab][AEEA][AEEA][γGlu][γGlu]-{NH(CH2)16COOH}; thioether N-14),45.7
5,CC(C)C[C@H]1NC(=O)[C@H](CCCN)NC(=O)[C@H](Cc2ccc(OCC(=O)O)cc2)NC(=O)[C@H](Cc2ccc(-c3ccccc3)cc2)NC(=O)[C@H](Cc2ccc(OCC(=O)O)cc2)NC(=O)[C@H](Cc2cccc(C(F)(F)F)c2)NC(=O)[C@H](CC(=O)O)NC(=O)[C@H](Cc2ccc(OCC(=O)O)cc2)NC(=O)[C@H](Cc2ccc(OCC(=O)O)cc2)NC(=O)CSC[C@@H](C(=O)N[C@@H](CCN)C(=O)NCCOCCOCC(=O)NCCOCCOCC(=O)N[C@@H](CCC(=O)N[C@@H](CCC(=O)NCCCCCCCCCCCCCCC(=O)O)C(=O)O)C(=O)O)NC(=O)[C@H](Cc2cnc[nH]2)NC(=O)[C@H](C(C)(C)O)NC(=O)[C@H](CC2CCCCC2)NC(=O)[C@H](CCN)NC1=O [Compound 3872] ({CH2CO}-Y(Carboxymethyl)Y(Carboxymethyl)D[Phe(3-CF3)]Y(Carboxymethyl)[Bip]Y(Carboxymethyl)[Orn][dL][Dab][Cha][Val(3-OH)]HC[Dab][AEEA][AEEA][γGlu][γGlu]-{NH(CH2)14COOH}; thioether N-14),174
6,CC(C)C[C@@H]1NC(=O)CSC[C@@H](C(=O)N[C@@H](CCN)C(=O)NCCCCCCCCCCCCC(=O)O)NC(=O)[C@H](Cc2cnc[nH]2)NC(=O)[C@H](C(C)(C)O)NC(=O)[C@H](CC2CCCCC2)NC(=O)[C@H](CCN)NC(=O)[C@@H](CC(C)C)NC(=O)[C@H](CCCN)NC(=O)[C@H](Cc2ccc(OCC(=O)O)cc2)NC(=O)[C@H](Cc2ccc(-c3ccccc3)cc2)NC(=O)[C@H](Cc2ccc(OCC(=O)O)cc2)NC(=O)[C@H](Cc2cccc(C(F)(F)F)c2)NC(=O)[C@H](CC(=O)O)NC(=O)[C@H](Cc2ccc(OCC(=O)O)cc2)NC1=O [Compound 3873] ({CH2CO}-LY(Carboxymethyl)D[Phe(3-CF3)]Y(Carboxymethyl)[Bip]Y(Carboxymethyl)[Orn][dL][Dab][Cha][Val(3-OH)]HC[Dab]-{NH(CH2)12COOH}; thioether N-14),70.5
7,CC(C)C[C@@H]1NC(=O)CSC[C@@H](C(=O)N[C@@H](CCN)C(=O)NCCCCCCCCCCCCCCC(=O)O)NC(=O)[C@H](CCC(=O)O)NC(=O)[C@H](C(C)(C)O)NC(=O)[C@H](CC2CCCCC2)NC(=O)[C@H](CCN)NC(=O)[C@@H](CC(C)C)NC(=O)[C@H](CCCN)NC(=O)[C@H](Cc2ccc(OCC(=O)O)cc2)NC(=O)[C@H](Cc2ccc(-c3ccccc3)cc2)NC(=O)[C@H](Cc2ccc(OCC(=O)O)cc2)NC(=O)[C@H](Cc2cccc(C(F)(F)F)c2)NC(=O)[C@H](CC(=O)O)NC(=O)[C@H](Cc2ccc(OCC(=O)O)cc2)NC1=O [Compound 3874] ({CH2CO}-LY(Carboxymethyl)D[Phe(3-CF3)]Y(Carboxymethyl)[Bip]Y(Carboxymethyl)[Orn][dL][Dab][Cha][Val(3-OH)]EC[Dab]-{NH(CH2)14COOH}; thioether N-14),815
8,CC(=O)NCCCC[C@@H]1NC(=O)[C@H](C(C)(C)O)NC(=O)[C@H](CC2CCCCC2)NC(=O)[C@H](CCN)NC(=O)[C@@H](CC(C)C)NC(=O)[C@H](CCCN)NC(=O)[C@H](CCC(N)=O)NC(=O)[C@H](Cc2ccc(-c3ccccc3)cc2)NC(=O)[C@H](Cc2ccc(OCC(=O)O)cc2)NC(=O)[C@H](Cc2cccc(C(F)(F)F)c2)NC(=O)[C@H](CC(=O)O)NC(=O)[C@H](Cc2ccc(OCC(=O)O)cc2)NC(=O)[C@H](Cc2ccc(OCC(=O)O)cc2)NC(=O)CSC[C@@H](C(=O)N[C@@H](CCN)C(=O)NCCCCCCCCCCCCCCC(=O)O)NC1=O [Compound 3875] ({CH2CO}-Y(Carboxymethyl)Y(Carboxymethyl)D[Phe(3-CF3)]Y(Carboxymethyl)[Bip]Q[Orn][dL][Dab][Cha][Val(3-OH)]K(Ac)C[Dab]-{NH(CH2)14COOH}; thioether N-14),147
9,Cc1cccc(C[C@@H]2NC(=O)[C@H](CC(=O)O)NC(=O)[C@H](Cc3ccc(OCC(=O)O)cc3)NC(=O)[C@H](CC(C)C)NC(=O)CSC[C@@H](C(=O)N[C@@H](CCN)C(=O)NCCOCCOCC(=O)N[C@H](CC(=O)NCCOCCOCC(=O)NCCCCCCCCCCCCC(=O)O)C(=O)O)NC(=O)[C@H](CCC(=O)O)NC(=O)[C@H](C(C)(C)O)NC(=O)[C@H](CC3CCCCC3)NC(=O)[C@H](CCN)NC(=O)[C@@H](CC(C)C)NC(=O)[C@H](CCCN)NC(=O)[C@H](Cc3ccc(OCC(=O)O)cc3)NC(=O)[C@H](Cc3ccc(-c4ccccc4)cc3)NC(=O)[C@H](Cc3ccc(OCC(=O)O)cc3)NC2=O)c1 [Compound 3877] ({CH2CO}-LY(Carboxymethyl)D[Phe(3-Me)]Y(Carboxymethyl)[Bip]Y(Carboxymethyl)[Orn][dL][Dab][Cha][Val(3-OH)]EC[Dab][AEEA][d(βAsp)][AEEA]-{NH(CH2)12COOH}; thioether N-14),26.3
10,CC(=O)NCCCC[C@@H]1NC(=O)[C@H](C(C)(C)O)NC(=O)[C@H](CC2CCCCC2)NC(=O)[C@H](CCN)NC(=O)[C@@H](CC(C)C)NC(=O)[C@H](CCCN)NC(=O)[C@H](CCC(N)=O)NC(=O)[C@H](Cc2ccc(-c3ccccc3)cc2)NC(=O)[C@H](Cc2ccc(C(=O)O)cc2)NC(=O)[C@H](Cc2cccc(C(F)(F)F)c2)NC(=O)[C@H](CC(=O)O)NC(=O)[C@H](Cc2ccc(OCC(=O)O)cc2)NC(=O)[C@H](Cc2ccc(OCC(=O)O)cc2)NC(=O)CSC[C@@H](C(=O)N[C@@H](CCN)C(=O)NCCCCCCCCCCCCC(=O)O)NC1=O [Compound 3881] ({CH2CO}-Y(Carboxymethyl)Y(Carboxymethyl)D[Phe(3-CF3)][Phe(4-COOH)][Bip]Q[Orn][dL][Dab][Cha][Val(3-OH)]K(Ac)C[Dab]-{NH(CH2)12COOH}; thioether N-14),24.5
11,Cc1cccc(C[C@@H]2NC(=O)[C@H](CC(=O)O)NC(=O)[C@H](Cc3ccc(OCC(=O)O)cc3)NC(=O)[C@H](C(C)O)NC(=O)CSCC(C(=O)N[C@@H](CCN)C(=O)NCCCCCCCCCCCCC(=O)O)NC(=O)[C@H](CO)NC(=O)[C@H](C(C)(C)O)NC(=O)[C@H](CC3CCCCC3)NC(=O)[C@H](CCN)NC(=O)[C@@H](CC(C)C)NC(=O)[C@H](CCCN)NC(=O)[C@H](CCCNC(=N)N)NC(=O)[C@H](Cc3ccc(-c4ccccc4)cc3)NC(=O)[C@H](Cc3ccc(O)cc3)NC2=O)c1 (stereo partly drawn) [Compound 3882] ({CH2CO}-[Thr(3ξ)]Y(Carboxymethyl)D[Phe(3-Me)]Y[Bip]R[Orn][dL][Dab][Cha][Val(3-OH)]S[ξC][Dab]-{NH(CH2)12COOH}; thioether N-14),26.8
